One data set relates to grasses. Kind of data set: Grass control in QPE-tolerant wheat treated with herbicides. Format: in vivo. The protocol:
(§1) Yield of QPE-tolerant wheat in bushels per acre was measured under the following conditions: where no QPE was applied, where QPE was applied alone, where one or more broadleaf herbicides were applied, and where a combination of a QPE source and a broadleaf herbicide were applied together. For each test condition, the level of both grass control and broadleaf control was recorded. Finally, the application rate of each active substance was recorded. One QPE source is Aggressor™ which comprises Quizalofop-P-ethyl 10.3%.

The subject of a further data set is QPE-tolerant wheat. Kind of data set: Yield of QPE-tolerant wheat in bushels per acre. Format: in vivo. As for the experimental part:
as §1

A further data set deals with broadleaf weeds. Kind of data set: Broadleaf weed control in QPE-tolerant wheat treated with herbicides. Format: in vivo. As for the experimental part:
as §1

The conditions of data set [1]: soil; cited from earlier work.
The mark [2] stands for this setting: Treatment B Rate/Acre 3 fl oz/acre.
[3] abbreviates: Treatment B Rate/Acre 4 fl oz/acre.
[4] abbreviates: Treatment B Rate/Acre 5 fl oz/acre.
The mark [5] stands for this setting: Treatment B Rate/Acre 2 oz/acre.
Where [6] appears, read: Treatment B Rate/Acre .90 oz/acre.
Setting [7] is: Treatment B Rate/Acre 4.75/acre.
Setting [8] is: Treatment B Rate/Acre 1.00 lb ai/acre.
[9] abbreviates: Treatment B Rate/Acre .50 lb ai/acre.
[10] abbreviates: Treatment B Rate/Acre .66 oz/acre.
Setting [11] is: Treatment B Rate/Acre .60 oz/acre.
[12] abbreviates: Treatment B Rate/Acre .30 oz/acre.

Where “and” joins values, the source holds several entries; their conditions need not be identical. Equal entries are not always repeated.

For the molecule `COc1c(Cl)ccc(Cl)c1C(=O)O` [Dicamba], the “Grass Control” value in the data set with grasses (setting [2]), in the data set with grasses (setting [3]) and with grasses (setting [4]) was 0% each time. For the same molecule, the Yield is reported as 56.7 Bu/acre with QPE-tolerant wheat (setting [2]), 57.9 Bu/acre in the data set with QPE-tolerant wheat (setting [3]) and 58.4 Bu/acre in the data set with QPE-tolerant wheat (setting [4]). The figures for the “Broadleaf Weed Control” value with broadleaf weeds (setting [2]), with broadleaf weeds (setting [3]) and with broadleaf weeds (setting [4]) were 90%, 93% and 96%, respectively.
In the case of `COc1cc(OC)n2nc(NS(=O)(=O)c3c(C(F)(F)F)ccnc3OC)nc2n1` [Pyroxsulam], in the data set with grasses (setting [5]), the “Grass Control” value stood at 70%. Also, in the data set with QPE-tolerant wheat (setting [5]), the Yield is on record as 60.3 Bu/acre. Besides, in the data set with broadleaf weeds (setting [5]), the “Broadleaf Weed Control” value is given as 30%.
With `CCCOc1nn(C(=O)[N-]S(=O)(=O)c2ccccc2C(=O)OC)c(=O)n1C.[Na+]` [Propoxycarbazone], the “Grass Control” value in the data set with grasses (setting [6]) amounted to 45%. The Yield in the data set with QPE-tolerant wheat (setting [6]) was determined as 63.2 Bu/acre. Further, the “Broadleaf Weed Control” value in the data set with broadleaf weeds (setting [6]) is given as 65%.
`COc1cc(OC)nc(NC(=O)NS(=O)(=O)c2cc(CNS(C)(=O)=O)ccc2C(=O)O)n1` [Mesosulfuron]: the “Grass Control” value in the data set with grasses (setting [7]) came out at 35%. Also, the Yield in the data set with QPE-tolerant wheat (setting [7]) turned out to be 60.4 Bu/acre. The “Broadleaf Weed Control” value with broadleaf weeds (setting [7]) is listed as 50%.
For `CNC.O=C(O)COc1ccc(Cl)cc1Cl` [2,4-D Amine], the “Grass Control” value with grasses (setting [8]) and in the data set with grasses (setting [9]) was 0% each time. Also, the Yield in the data set on QPE-tolerant wheat (setting [8]) was determined as 56.8 Bu/acre; in the data set on QPE-tolerant wheat (setting [9]), 55.7 Bu/acre. Besides, the figures for the “Broadleaf Weed Control” value in the data set with broadleaf weeds (setting [8]) and in the data set with broadleaf weeds (setting [9]) were 90% and 75%, respectively.
Turning to `COc1nn(C(=O)NS(=O)(=O)c2ccccc2OC(F)(F)F)c(=O)n1C` [Flucarbazone], in the data set with grasses (setting [5]), the “Grass Control” value was determined as 65%. In the data set on QPE-tolerant wheat (setting [5]), the Yield is 67.3 Bu/acre. For the same molecule, the “Broadleaf Weed Control” value with broadleaf weeds (setting [5]) was 55%.
Consider `CCS(=O)(=O)c1nc2ccccn2c1S(=O)(=O)NC(=O)Nc1nc(OC)cc(OC)n1` [Sulfosulfuron], for which the “Grass Control” value with grasses (setting [10]) was 55%. In the data set with broadleaf weeds (setting [10]), the “Broadleaf Weed Control” value was determined as 60%.
Regarding `COc1nc(C)nc(NC(=O)NS(=O)(=O)c2ccccc2CCC(F)(F)F)n1` [Prosulfuron], the “Grass Control” value in the data set with grasses (setting [11]) was found to be 0%. The Yield in the data set on QPE-tolerant wheat (setting [11]) was 59.2 Bu/acre. Moreover, the “Broadleaf Weed Control” value in the data set on broadleaf weeds (setting [11]) worked out at 85%.
For `COc1nc(C)nc(N(C)C(=O)NS(=O)(=O)c2ccccc2C(=O)O)n1` [Tribenuron], the “Grass Control” value in the data set with grasses (setting [12]) came out at 0%. In addition, the Yield with QPE-tolerant wheat (setting [12]) came to 58.4 Bu/acre. For the same molecule, the “Broadleaf Weed Control” value in the data set with broadleaf weeds (setting [12]) was found to be 93%.
In the case of `CCOC(=O)[C@@H](C)Oc1ccc(Oc2cnc3cc(Cl)ccc3n2)cc1` [Quizalofop-p-ethyl], the Koc in data set [1] was 510 and 570.
For `CNC.Cc1cc(Cl)ccc1OCC(=O)O` [MCPA Amine], the “Grass Control” value in the data set on grasses (setting [8]) and with grasses (setting [9]) was 0% throughout. The values for the Yield in the data set with QPE-tolerant wheat (setting [8]) and in the data set on QPE-tolerant wheat (setting [9]) were 56.9 Bu/acre and 52.4 Bu/acre, respectively. The “Broadleaf Weed Control” value in the data set on broadleaf weeds (setting [8]) is recorded as 93%; in the data set on broadleaf weeds (setting [9]) it was 78%.

Source of the values: patent US11576381B2, “Composition and a method of using the composition to increase wheat yield” (priority 2019, dated 2023).
